Test results: US20240376129A1, “METALLODRUG THERAPEUTIC COMPOUNDS AND PRODRUGS OF METALLODRUG THERAPEUTIC COMPOUNDS” (Dublin City University, priority 2021, published 2024)

Key:
supercoiled pUC19 DNA = test: DNA condensation of supercoiled pUC19 by gel electrophoresis; format: biochemical; settings: for DNA condensation / aggregation effect: supercoiled pUC19, tested at 100 and 500 μM, 37° C., 90 min; for DNA condensation activity: supercoiled pUC19, at 100 μM
Method: Preparation of solutions. Tri-Click samples were initially prepared in DMF and further diluted in HEPES buffer (80 mM). Metal complexes of the Tri-Click series were prepared in-situ by co-incubating with copper(II) nitrate trihydrate, manganese (II) chloride tetrahydrate or zinc(II) acetate dihydrate for 30 min at 37° C. prior to DNA addition.
DNA nuclease and condensation studies. Reactions were carried out in 80 mM HEPES (pH 7.4) unless otherwise stated and followed the general procedure: a total volume of 20 μL with 25 mM NaCl, 400 ng pUC19 at varying concentrations of test compounds (0.25-500 μM) were incubated at 37° C. for either 90 min, 6 h, 12 h or 24 h. Reactions were quenched by adding 6× loading buffer (Fermentas) containing 10 mM Tris-HCl, 0.03% bromophenol blue, 0.03% xylene cyanole FF, 60% glycerol, 60 mM EDTA and samples were loaded onto an agarose gel (1.2%) containing 4 μL EtBr. Electrophoresis was completed at 70 V for 1 h in 1×TAE buffer. DNA studies conducted in the presence of reductant were supplemented with 1 mM Na-L-ascorbate and incubated at 37° C. for 30 min. Electrophoresis was carried out at 70 V for 90 minutes in 1×TAE buffer and photographed using a UV transilluminator.
The DNA recognition properties of the TC series, along with the control compounds, were probed using electrophoresis experiments with supercoiled pUC19 DNA. TC1 was examined across a wide concentration range and found to condense DNA at high concentrations between 250 and 500 μM (FIG. 2a, lanes 11-13).

calf-thymus DNA (ctDNA) = test: Competitive ethidium bromide displacement assay, calf-thymus DNA; format: binding
Method: (§1) Competitive ethidium bromide displacement assay. The DNA binding affinity of the tripodal series was determined over a 2 h time period using calf-thymus DNA and synthetic alternating co-polymers poly[d(A-T)2)] and poly[d(G-C)2] by ethidium bromide fluorescence quenching in a similar manner to the high throughput method previously reported by Kellett et al. (McCann, M., McGinley, J., Ni, K., O'Connor, M., Kavanagh, K., McKee, V., Colleran, J., Devereux, M., Gathergood, N., Barron, N. et al. (2013) A new phenanthroline-oxazine ligand: synthesis, coordination chemistry and atypical DNA binding interaction. Chem. Commun., 49, 2341-2343). Each drug concentration was measured in triplicate, on at least two separate occasions, and the apparent binding constants were calculated using Kapp=Ke×12.6/C50 where Ke=9.5×10^6 M^−1.

poly[d(A-T)2] = test: Competitive ethidium bromide displacement assay, poly[d(A-T)2]; format: binding; settings: A-T duplex polymer, EtBr displacement
Method: as §1

poly[d(G-C)2] = test: Competitive ethidium bromide displacement assay, poly[d(G-C)2]; format: binding; settings: EtBr displacement
Method: as §1

**Q.** Cc1c(CN)c(C)c(CN)c(C)c1CN [T1, 2,4,6-Tris-(aminomethyl)-mesitylene] was tested. Which “DNA condensation / aggregation effect” value (supercoiled pUC19 DNA) did it give?
**A.** Its value is “mildly condense pUC19”.

**Q.** With “2,4,6-Tris-(1,2-ethanediamine)-mesitylene [T2]” as the compound, how does the DNA condensation activity (supercoiled pUC19 DNA) read?
**A.** The DNA condensation activity was “highly active”.

**Q.** How did the DNA condensation activity (supercoiled pUC19 DNA) turn out when “2,4,6-Tris-(1,3-propanediamine)-mesitylene [T3]” was run?
**A.** The DNA condensation activity was “highly active”.

**Q.** For Cc1c(Cn2cc(CN)nn2)c(C)c(Cn2cc(CN)nn2)c(C)c1Cn1cc(CN)nn1 [TC1, Tri-Click propargylamine], which “apparent DNA binding constant (Kapp)” value (calf-thymus DNA (ctDNA); ctDNA, EtBr displacement) is on record?
**A.** The value was ~10^6 M^−1.

**Q.** What about the “binding affinity to duplex DNA (summary)” value (calf-thymus DNA (ctDNA); duplex DNA, conclusion summary over ctDNA and co-polymers) of the same compound?
**A.** The value was 10^5-10^6 M^−1.

**Q.** What about the “apparent DNA binding constant (Kapp)” value (poly[d(A-T)2]) of the same compound?
**A.** The value was ~10^6 M^−1.

**Q.** What about the “apparent DNA binding constant (Kapp)” value (poly[d(G-C)2]) of the same compound?
**A.** The value was ~10^5 M^−1.

**Q.** How did the “DNA condensation / aggregation effect” value (supercoiled pUC19 DNA) turn out when Cc1c(Cn2cc(-c3ccc(N(C)C)cc3)nn2)c(C)c(Cn2cc(-c3ccc(N(C)C)cc3)nn2)c(C)c1Cn1cc(-c2ccc(N(C)C)cc2)nn1 [TC7, Tri-Click 4-ethynyl-N,N-dimethylaniline] was run?
**A.** Its value is “slight aggregation effects”.

**Q.** Which “DNA condensation / aggregation effect” value (supercoiled pUC19 DNA) does the source give for Cc1c(Cn2cc(-c3cccc(N(C)C)c3)nn2)c(C)c(Cn2cc(-c3cccc(N(C)C)c3)nn2)c(C)c1Cn1cc(-c2cccc(N(C)C)c2)nn1 [TC6, Tri-Click 3-ethynyl-N,N-dimethylaniline] here?
**A.** The value was “slight aggregation effects”.
